Here are results for seven compounds from US4560684A, “1,4-Benzodiazepine derivatives” (priority 1982, dated 1985).

Molecules are shown by their SMILES. Where a name gives a salt, the structure may show the parent alone. Read-outs that look alike come from different tables or passages of the source.

Test [1] relates to pentylenetetrazole (PTZ) induced convulsion. Put plainly: Antagonism to the pentylenetetrazole (PTZ) induced convulsion. The format is in vivo, ddy male mice. The settings on record: Mus musculus, read-out: Anti-PTZ convulsion (ED50). Here is the method:
(§1) Each compound was used in the form of 0.5 to 1% suspension made by mixing
(§2) with its half volume of arabic gum.
***Antagonism to the pentylenetetrazole (PTZ) induced convulsion: To
several groups of ddy male mice in 4 to 5 weeks age, each group consistin
of 8 mice was orally administered the test compound. Half an hour later,
125 mg/kg of pentylenetetrazole was subcutaneously administered, and the
number of mice surviving during 2 hours was observed. The ED50 value
was obtained from the survival number according to the probit method.

Test [2] deals with tetrabenazine (TBZ) induced ptosis. As to the kind of experiment: Antagonism to the tetrabenazine (TBZ) induced ptosis. The format is in vivo, DS male mice. To be noted: Mus musculus, sc, read-out: Anti-TBZ ptosis (ED50). Here is the method: as §1, §2
**Antagonism to the tetrabenazine (TBZ) induced ptosis: To several groups
of DS male mice in 4 to 5 weeks age, each group consisting of 5 mice was
subcutaneously administered the test compound. Half an hour later, 50
mg/kg of tetrabenazine was subcutaneously administered. Degree of the
ptosis in 1 hour was scored, and the result was subjected to the rigid
conversion. The ED50 value was obtained from the regression

Where [3] appears, read: ddy male mice, oral, half an hour before pentylenetetrazole 125 mg/kg s.c., survival during 2 hours.
The mark [4] stands for this setting: DS male mice, subcutaneous, half an hour before tetrabenazine 50 mg/kg s.c., ptosis scored in 1 hour.

As to `CN(C)CCCN1c2ccccc2CCc2ccccc21` [imipramine, reference compound], the median effective dose (ED50) (as a rule, the midpoint of the dose-response relation) is more than 10 mg/kg in test [1] (po, 2 h) and 0.799 mg/kg in test [2] (1 h).

Consider `CN1CCC(N2C(=O)CN=C(c3ccccc3F)c3cc(Cl)ccc32)CC1` [Compound 10], for which the ED50 came to 0.77 mg/kg in test [1] (po, 2 h) and 1.3 mg/kg in test [2] (1 h).

Take `O=C1CN=C(c2ccccc2F)c2cc(Cl)ccc2N1C1CCNCC1` [Compound 23, 7-chloro-1,3-dihydro-5-(2-fluorophenyl)-1-(4-piperidinyl)-2H-1,4-benzodiazepin-2-one]: the ED50 amounted to 8.52 mg/kg in test [1] (setting [3]) and 0.075 mg/kg in test [2] (setting [4]).

For the compound `CN1CCC(N2C(=O)CN=C(c3ccccc3F)c3ccccc32)CC1` [Compound 8, 1-(1-methyl-4-piperidinyl)-1,3-dihydro-5-(2-fluorophenyl)-2H-1,4-benzdiazepin-2-one], the ED50 is more than 10 mg/kg in test [1] (po, 2 h) and 0.205 mg/kg in test [2] (1 h).

Turning to `CN1CCC(N2C(=O)CN=C(c3ccccc3)c3ccccc32)CC1` [Compound 6], the ED50 is more than 20 mg/kg in test [1] (po, 2 h) and 0.26 mg/kg in test [2] (1 h).

`Cc1ccc2c(c1)C(c1ccccc1F)=NCC(=O)N2C1CCN(C)CC1` [Compound 15]: the ED50 was more than 10 mg/kg in test [1] (po, 2 h) and 0.839 mg/kg in test [2] (1 h).

For `O=C1CN=C(c2ccccc2)c2ccccc2N1C1CCNCC1` [Compound 26, 1-(4-piperidinyl)-1,3-dihydro-5-phenyl-2H-1,4-benzodiazepin-1-one hydrobromide], the ED50 in test [1] (setting [3]) is more than 10 mg/kg; in test [2] (setting [4]) it was 0.063 mg/kg.
